Results: patent US20240374558A1, “PREPARATION OF PHENE[…] […] STEREOISOMERS THEREOF AND PRECURSORS THEREOF” (priority 2022, published 2024)
Where two headings read alike, the source gives them in different places.

What was measured:
[1] = system: rat forced swim test (FST); assay: Rat forced swim test (FST); assay type: in vivo; details: 10 mg/kg, IP
Description: The forced swim test (FST) is a classic model to assess the antidepressant-like activity of compounds that has been in use for over 40 years (Porsolt et al. (1977) Nature 266:730-732; Detke et al. (1995) Psychopharmacology 121:66-72). […] A single dose of 5 mg/kg methylone reduces immobility by approximately 50% compared to vehicle-treated controls, whereas a 15 mg/kg dose reduces immobility by nearly 100%. Accompanying changes in climbing and/or swimming behavior reflect noradrenergic and serotonergic activities of methylone, respectively.
All FST studies are performed and scored by an experimenter blind to treatment group and according to standard protocols. Briefly, rats are placed in a circular plexiglass container filled with water. Water temperature is maintained at 22-25° C. and changed for every animal. Day 1 (Training) consists of a 15 min acclimation trial, and Day 2 (Testing, 24 h later) consists of the 5 min test. A time sampling procedure is employed where animals are observed every 5 seconds for the duration of the test session (60 counts or 5 minutes) and scored for immobility (defined as the failure to struggle), swimming (defined as a circular movement around the tank), or climbing (defined as an upwards escape behavior). Data are expressed as the percent of the testing session (e.g., the number of immobility counts divided by 60). A p-value less than 0.05 indicates statistical significance after typical statistical analyses (e.g., unpaired t-test or ANOVA).
To determine that the prodrug and/or enantiomer has an antidepressant-like effect and to compare it to methylone, rats are treated with each compound 30 min prior to testing. Additional tests are run 24, 72, 168 hours post-dose or longer. Effects on Fear Extinction in a Model of Post-Traumatic Stress Disorder (PTSD)
Racemic methylone (10 mg/kg, IP) has a maximal antidepressant-like effect in the rat forced swim test (FST), reducing immobility by nearly 100% compared to vehicle treated controls. […]

NET = NET (Rattus norvegicus, UniProt Q63380); assay: NE release study; assay type: biochemical
[2] = target: T1, norepinephrine transporter (NET) (Rattus norvegicus, UniProt Q63380); assay: Competition radioligand binding, [3H]Nisoxetine, brain synaptosome membranes; design: species or system rat (Sprague Dawley)
T1 construct: hippocampus plus overlying occipital cortex for norepinephrine transporter assays; from tissue
Text: Rat brain (Sprague Dawley, 200-250 g) synaptosomes were isolated from midbrain and hindbrain for serotonin transporter assays, striatum for dopamine transporter assays, and hippocampus plus overlying occipital cortex for norepinephrine transporter assays. Radioligands used were: [^3H]Citalopram 81.4 Ci/mmol (PerkinElmer NET1039250UC; Lot No. 2960876). [3H]WIN35428 82.8 Ci/mmol (PerkinElmer NET1033250UC; Lot No. 2891473). [^3H]Nisoxetine 79.2 Ci/mmol (PerkinElmer NET1084250UC; Lot No. 2970324). Non-specific compounds used were: Citalopram (Tocris Bioscience 1427). JHW007 (Tocris Bioscience 4351). Nomifensine (Abcam abl46004). Test Compounds for the study were: racemic methylone HCl; (R)-methylone HCl; (S)-methylone HCl.
For membrane preparations, rat brains were dissected, tissue was added to ice-cold lysis buffer (50 mM Tris HCl; 5 mM MgCl2; 5 mM EDTA; protease inhibitor cocktail) and homogenized. […] A sample of the homogenate was analyzed for protein content using the MERCK® BCA assay. […]
Competition binding assays were carried out in 96-well polypropylene plates in a final volume of 250 μL per well. […] Filters were then dried under a warm air stream, sealed in polyethylene, scintillation cocktail added, and the radioactivity counted in a WALLAC® TriLux 1450 MicroBeta counter. […] Ki was subsequently calculated using the ChengPrusoff equation.

[3] = self-administration, healthy volunteers; Lourdes et al. 2021; cited from earlier work
open field test (OFT) [4] = assay: Open field test (OFT); design: species or system rats; details: rat, in vivo
Description: Additional behavioral testing including the elevated plus maze (EPM) and thigmotaxis in the open field test (OFT) are used to assess the anxiolytic effects of methylone and its prodrugs in mice or rats. […] These models are described in greater detail below. Prodrugs are screened in these behaviors to the anxiolytic efficacy of each compound.
Compounds are screened for their effects on both parameters. Briefly, rodents are assessed in a 30 minute OFT using an automated activity monitoring system. Rodents are acclimated to the room 30 minutes before the start of testing. The following parameters are captured: Horizontal distance travelled, overall ambulatory time, and ambulatory counts. Vertical activity (time and counts), Time in the Center vs. Periphery data are reported in 5-minute bins as well as total time.

mouse model of PTSD = assay: Fear extinction in a mouse model of PTSD; assay type: in vivo; details: 30 mg/kg, IP
Description: FIGS. 1A-1D: Methylone improves fear extinction recall in a mouse model of PTSD. (FIG. 1A) Schematic of experimental design. A single CS-US (tone-shock) pairing on day 1 was followed by 6 CS presentations in a novel context (context B). Methylone or saline vehicle was injected 30 min prior to extinction training on day 2. On day 3, the time spent freezing to the CS was quantified. […] (FIG. 1C) The time freezing before vs. during each of 6 cues on day 3 (to control for locomotor effects) are shown. There was a significant cue x drug interaction (F(5,130)=2.409, p<0.05). […] N=12 for methylone group (30 mg/kg, IP, orange diamonds) and N=16 for saline control group (black squares). *p<0.05
Effective PTSD treatments facilitate the disassociation between a traumatic memory and the patient's fear response, making cues for the traumatic memory evoke less of a fear response. This is modeled in the mouse fear extinction paradigm which takes place over 3 days. On day 1 (fear conditioning), mice are trained to acquire a “traumatic memory,” namely associating the conditioned stimulus (CS, tone) to the unconditioned stimulus (US, foot shock). On day 2 (extinction training), they are trained to forget the traumatic memory association by presenting the CS 6 times (with no US) in a novel environment. On day 3 (extinction recall), the mice are “asked” if that tone (CS) still elicits a fearful response, as measured by the time spent freezing when the tone is presented. Less time freezing means better extinction recall. Drugs that improve extinction recall reduce freezing time on day 3, and, therefore, show potential as a PTSD treatment.
Using these methods, prodrugs and/or enantiomers are administered to mice and tested for efficacy in the fear extinction model to evaluate their efficacy to treat PTSD and other memory disorders. Anxiolytic Effects in Other Behavioral Anxiety Models

open field test (OFT) [5] = details: 5, 10, 20 mg/kg, SC, rats; Stefkovi et al. 2017; cited from earlier work
PTSD symptoms = details: clinical case series of 21 individuals; cited from earlier work
[6] = Pharmacokinetics of methylone after a single IV, PO or IP administration (LC-MS/MS of plasma); assay type: in vivo, male Sprague Dawley rats
Description: The pharmacokinetic properties of methylone after a single administration intravenously (IV), intraperitoneally (IP), or by oral gavage (PO) in male Sprague Dawley rats has been determined using a liquid chromatography tandem mass spectrometry (LC-MS/MS) method that has been established and validated for methylone in the rat. Rats (n=3 per group) received a single dose of methylone: 5 mg/kg IV, 15 mg/kg IP, or 15 mg/kg PO.
To investigate whether the prodrug extends the half-life or alters other basic pharmacokinetic properties of methylone (e.g., Cmax or Tmax), rats are treated with each prodrug IV, IP, or PO. For each compound, three groups of rats are treated as follows: For group 1, a single dose of methylone is administered to 3 male Sprague-Dawley rats by IV bolus at 5 mg/kg. For group 2, a single dose of methylone is administered to 3 male Sprague-Dawley rats by oral gavage (PO) at 15 mg/kg. For group 3, a single dose of methylone is administered to 3 male Sprague-Dawley rats by IP at 15 mg/kg. For all groups, blood samples are collected from each animal at 0.083, 0.25, 0.5, 1, 2, 4, 8, 12, and 24 hours post-dose for the determination of plasma concentrations. The plasma concentrations are quantified by liquid chromatography tandem mass spectrometry (LC-MS/MS). The bioanalytical assay has been established and validated, providing a lower limit of quantification (LLOQ) of 1 ng/mL and an upper limit of quantification (ULOQ) of 3000 ng/mL for methylone. The plasma concentration-time data are analyzed using Phoenix WinNonlin (version 8.3) to characterize the PK properties of the analyte. The non-compartmental analysis model and the linear/log trapezoidal method are applied to calculating the PK parameters.

[7] = XRPD analysis of pre- and post-DVS samples (form stability); assay type: physicochemical; details: after DVS 5-95-5% RH
Description: Two lots of methylone HCl samples were submitted to evaluate the stability of the solid forms under various humidity conditions. Dynamic vapor sorption (DVS) analysis was performed to evaluate the kinetic hygroscopicity and assess if variable humidity XRPD would be necessary, as well as to determine the appropriate humidity condition(s) for such XRPD analysis. Both pre- and post-DVS samples were analyzed by conventional XRPD for solid form confirmation or any potential form changes.
Each sample was prepared in a silicon low background holder using light manual pressure to keep the sample surface flat and level with the reference surface of the sample holder. The single crystal Si low background holder has a circular recess (10 mm diameter and about 0.2 mm depth) that holds the sample. The Rigaku Smart-Lab diffraction system used was configured for Bragg-Brentano reflection geometry using a line source X-ray beam. The Bragg-Brentano geometry was controlled by passive divergence and receiving slits with the sample itself acting as the focusing component for the optics.

T1 sequence (Q63380 1-617): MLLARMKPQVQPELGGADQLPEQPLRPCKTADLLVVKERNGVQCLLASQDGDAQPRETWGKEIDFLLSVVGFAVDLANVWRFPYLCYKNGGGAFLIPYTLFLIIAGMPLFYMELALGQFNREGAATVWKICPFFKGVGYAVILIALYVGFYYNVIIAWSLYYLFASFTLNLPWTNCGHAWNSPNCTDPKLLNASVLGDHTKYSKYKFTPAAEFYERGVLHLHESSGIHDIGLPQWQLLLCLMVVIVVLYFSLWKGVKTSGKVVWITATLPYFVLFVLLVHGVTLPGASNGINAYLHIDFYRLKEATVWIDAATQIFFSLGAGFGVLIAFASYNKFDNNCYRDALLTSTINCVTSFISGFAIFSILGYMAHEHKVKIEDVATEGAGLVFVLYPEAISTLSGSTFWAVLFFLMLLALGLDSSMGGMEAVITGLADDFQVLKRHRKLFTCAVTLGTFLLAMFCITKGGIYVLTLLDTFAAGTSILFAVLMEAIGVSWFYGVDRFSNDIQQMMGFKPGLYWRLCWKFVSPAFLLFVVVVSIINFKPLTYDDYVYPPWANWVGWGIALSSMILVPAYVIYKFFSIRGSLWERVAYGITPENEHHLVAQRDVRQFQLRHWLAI
Sequence of NET (Q63380 1-617): as above

For `CNC(C)C(=O)c1ccc2c(c1)OCO2` (racemic) [Racemic methylone, methylone], the “reduction of immobility compared to vehicle treated controls” value [1] was roughly 100%, the EC50 (NET) was 0.33 µM and the IC50 [2] was 3.1 µM. It also gave a Ki [2] of 1.46 µM.

For `CNC(C)Cc1ccc2c(c1)OCO2` (centres unmarked) [MDMA, 3,4-methylenedioxymethamphetamine, reference compound], the “systolic and diastolic blood pressure” value [3] is given as “significant increase”.

For `CNC(C)C(=O)c1ccc2c(c1)OCO2` (centres unmarked) [Methylone, methylone], the “locomotor activity in the OFT” value (open field test (OFT) [4]) is given as “increases locomotor activity”, the “time in the center vs the periphery in the OFT” value (open field test (OFT) [4]) is given as “reduces time spent in the center vs the periphery” and the heart rate [3] is given as “increase in heart rate”. For the same compound, the “systolic and diastolic blood pressure” value [3] was “significant increase”, the “fear extinction recall (freezing time during the first cue on day 3) vs saline” value (mouse model of PTSD) was “significantly improves fear extinction recall” and the “locomotor changes on day 3” value (mouse model of PTSD) was “No locomotor changes”. The “fear extinction recall (freezing time during the first cue on day 3) vs saline” value (mouse model of PTSD; listed as methylone) was “significantly reduced”, the “thigmotaxis (time spent hugging the perimeter of the open field)” value (open field test (OFT) [5]) was “reduce thigmotaxis” and the “patients with improved PTSD symptoms” value (PTSD symptoms) was 81%. For the same compound, the AUC0-last ([6]; Group 1 (IV), 5 mg/kg) was 1200 ± 88.2 ng·h/mL, the C0 ([6]; Group 1 (IV), 5 mg/kg) was 3018 ± 666 ng/mL and the Cl ([6]; Group 1 (IV), 5 mg/kg) was 68.3 ± 5.40 mL/min/kg. For the same compound, the MRT0-last ([6]; Group 1 (IV), 5 mg/kg) was 0.439 ± 0.026 h, the Vdss ([6]; Group 1 (IV), 5 mg/kg) was 1.98 ± 0.230 L/kg and the AUC0-last ([6]; Group 2 (PO), 15 mg/kg) was 2765 ± 657 ng·h/mL. For the same compound, the MRT0-last ([6]; Group 2 (PO), 15 mg/kg) was 2.99 ± 0.467 h, the T1/2 ([6]; Group 2 (PO), 15 mg/kg) was 3.23 ± 1.99 h and the Tmax ([6]; Group 2 (PO), 15 mg/kg) was 1.33 ± 0.577 h. It also gave a Cmax ([6]; Group 2 (PO), 15 mg/kg, plasma) of 678 ± 243 ng/mL, an AUC0-last ([6]; Group 3 (IP), 15 mg/kg) of 4305 ± 1179 ng·h/mL and an MRT0-last ([6]; Group 3 (IP), 15 mg/kg) of 1.07 ± 0.211 h. The Cmax ([6]; Group 3 (IP), 15 mg/kg, plasma) was 4230 ± 514 ng/mL and the Tmax ([6]; male, Sprague Dawley, rat, plasma, Group 3 (IP), 15 mg/kg, read-out: Tmax) was 0.25 h.

In the case of `CNC(C)C(=O)c1ccc2c(c1)OCO2.Cl` [lot KRR-R&D-2022-II-58, methylone HCl], the “form changes, post-DVS vs pre-DVS XRPD pattern” value [7] is reported as “No form changes”.
